Results reported in US8604021B2, “Substituted arylamine compounds and methods of treatment” (priority 2005, dated 2013).

How the values were obtained:
[1] = biological target: H1 (Homo sapiens, UniProt P35367); test: Compound Binding Profiles: H1; conditions: * = Estimated IC50
[2] = Oral pharmacokinetics in rodents; conditions: in vivo, oral administration 5 mg/kg
[3] = Food intake and body weight in rats, sub-chronic dosing; type: in vivo; conditions: sub-chronic dosing 10 and 30 mg/kg qd, i.p.
[4] = biological target: 5HT2A (Homo sapiens, UniProt P28223); test: Compound Binding Profiles: 5HT2A; conditions: * = Estimated IC50
[5] = biological target: T1, CYP1A2 (Homo sapiens, UniProt P05177); test: CYP inhibition CYP1A2
T1 sequence (P05177 1-516): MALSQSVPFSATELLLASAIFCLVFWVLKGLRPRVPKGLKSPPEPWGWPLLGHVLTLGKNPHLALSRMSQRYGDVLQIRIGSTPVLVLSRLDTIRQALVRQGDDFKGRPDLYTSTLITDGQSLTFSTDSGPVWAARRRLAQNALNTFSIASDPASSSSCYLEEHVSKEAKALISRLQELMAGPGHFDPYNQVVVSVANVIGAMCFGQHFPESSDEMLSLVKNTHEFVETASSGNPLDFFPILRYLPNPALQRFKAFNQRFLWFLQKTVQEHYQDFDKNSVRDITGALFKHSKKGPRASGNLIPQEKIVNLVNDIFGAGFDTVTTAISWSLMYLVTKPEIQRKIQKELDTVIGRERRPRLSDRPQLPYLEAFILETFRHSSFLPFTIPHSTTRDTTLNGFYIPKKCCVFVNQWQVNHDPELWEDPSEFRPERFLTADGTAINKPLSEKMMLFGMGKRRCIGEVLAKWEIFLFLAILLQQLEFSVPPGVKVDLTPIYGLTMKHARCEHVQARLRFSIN

[6] = biological target: D2 (Homo sapiens, UniProt P14416); test: Compound Binding Profiles: D2; conditions: * = Estimated IC50
[7] = biological target: α1; test: Compound Binding Profiles: α1; conditions: * = Estimated IC50
[8] = Oral pharmacokinetics in dogs; conditions: dog, in vivo, oral administration 5 mg/kg
[9] = Food intake and body weight in mice, sub-chronic dosing; type: in vivo; conditions: sub-chronic dosing 10 and 30 mg/kg qd, i.p.
[10] = biological target: CYP3A4 (Homo sapiens, UniProt P08684); test: CYP inhibition CYP3A4
[11] = tested on: more than 70 tested receptors; conditions: versus 5-HT6

Chain of D2 (P14416 whole entry): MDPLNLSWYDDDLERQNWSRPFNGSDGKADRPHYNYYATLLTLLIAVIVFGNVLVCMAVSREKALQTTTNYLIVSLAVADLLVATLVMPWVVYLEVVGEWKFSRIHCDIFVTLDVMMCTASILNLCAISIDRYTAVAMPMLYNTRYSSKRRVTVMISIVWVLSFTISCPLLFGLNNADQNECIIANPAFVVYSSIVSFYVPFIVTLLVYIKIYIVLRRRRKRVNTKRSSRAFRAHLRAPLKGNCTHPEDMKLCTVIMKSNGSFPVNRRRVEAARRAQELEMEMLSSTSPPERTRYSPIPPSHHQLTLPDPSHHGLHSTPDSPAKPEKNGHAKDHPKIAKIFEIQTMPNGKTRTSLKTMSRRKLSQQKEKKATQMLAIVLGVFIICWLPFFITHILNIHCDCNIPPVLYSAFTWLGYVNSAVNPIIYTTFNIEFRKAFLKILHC
Chain of CYP3A4 (P08684 whole entry): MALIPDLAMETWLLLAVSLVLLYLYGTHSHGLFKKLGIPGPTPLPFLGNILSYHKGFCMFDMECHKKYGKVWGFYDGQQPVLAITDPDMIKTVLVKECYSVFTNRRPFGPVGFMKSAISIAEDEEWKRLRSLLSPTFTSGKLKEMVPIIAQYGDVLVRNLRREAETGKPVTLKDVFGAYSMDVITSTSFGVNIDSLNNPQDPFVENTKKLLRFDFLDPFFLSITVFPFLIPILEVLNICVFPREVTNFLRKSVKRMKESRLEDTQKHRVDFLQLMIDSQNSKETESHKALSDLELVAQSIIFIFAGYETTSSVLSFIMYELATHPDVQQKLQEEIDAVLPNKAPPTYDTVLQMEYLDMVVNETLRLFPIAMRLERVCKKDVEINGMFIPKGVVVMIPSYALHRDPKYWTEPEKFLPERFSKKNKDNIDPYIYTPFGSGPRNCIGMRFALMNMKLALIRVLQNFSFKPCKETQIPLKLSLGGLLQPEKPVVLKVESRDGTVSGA
Chain of H1 (P35367 whole entry): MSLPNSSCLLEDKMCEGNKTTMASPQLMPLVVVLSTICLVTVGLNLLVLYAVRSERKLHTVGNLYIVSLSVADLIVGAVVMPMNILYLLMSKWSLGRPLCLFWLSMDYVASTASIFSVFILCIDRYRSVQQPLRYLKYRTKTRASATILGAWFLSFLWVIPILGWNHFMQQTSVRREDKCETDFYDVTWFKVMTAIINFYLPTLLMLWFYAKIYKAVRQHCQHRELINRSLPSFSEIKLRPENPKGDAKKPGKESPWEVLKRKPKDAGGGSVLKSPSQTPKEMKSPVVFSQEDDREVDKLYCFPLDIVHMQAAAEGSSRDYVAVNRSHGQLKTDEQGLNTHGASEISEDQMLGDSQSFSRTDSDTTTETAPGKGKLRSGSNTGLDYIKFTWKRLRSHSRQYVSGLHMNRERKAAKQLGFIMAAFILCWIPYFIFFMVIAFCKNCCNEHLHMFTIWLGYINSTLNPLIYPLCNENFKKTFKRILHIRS
Chain of 5HT2A (P28223 whole entry, species assumed): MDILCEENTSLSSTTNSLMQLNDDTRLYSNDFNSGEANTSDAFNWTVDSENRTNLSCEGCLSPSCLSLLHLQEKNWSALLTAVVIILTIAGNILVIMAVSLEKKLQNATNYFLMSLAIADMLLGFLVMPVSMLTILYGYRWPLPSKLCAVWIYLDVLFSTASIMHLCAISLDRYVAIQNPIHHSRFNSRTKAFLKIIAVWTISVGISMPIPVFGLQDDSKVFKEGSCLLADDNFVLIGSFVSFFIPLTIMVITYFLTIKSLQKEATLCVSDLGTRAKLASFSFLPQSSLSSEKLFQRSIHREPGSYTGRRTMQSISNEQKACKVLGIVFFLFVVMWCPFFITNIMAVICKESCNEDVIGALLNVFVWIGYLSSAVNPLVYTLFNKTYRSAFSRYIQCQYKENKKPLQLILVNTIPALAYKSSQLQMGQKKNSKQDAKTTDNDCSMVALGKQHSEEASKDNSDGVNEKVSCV

COc1cc(Cl)cc(C(C)Nc2cc(N3CCNCC3)ccc2S(C)(=O)=O)c1OC.Cl (stereo not drawn) [Compound A, [1-(5-Chloro-2,3-dimethoxy-phenyl)-ethyl]-(2-methanesulfonyl-5-piperazin-1-yl-phenyl)-amine hydrochloride]
IC50 [1]: 22 µM | bioavailability [2]: 38% | half-life [2]: 1.5 h | body weight [3]: significant reduction | food intake [3]: significant reduction | IC50 [4]: 2.5 µM | IC50 [5]: > 7.5 µM | IC50 [6]: 9 µM | IC50 [7]: 24 µM | bioavailability ([8]; read-out: bioavailability F): 81% | half-life ([8]; read-out: half-life T1/2 (converted)): 5 h | body weight [9]: significant reduction | food intake [9]: significant reduction | IC50 [10]: > 7.5 µM | safety margin (selectivity) to more than 70 tested receptors [11]: > 100 fold
